This is an account of results in ChEMBL document CHEMBL1135177 (Bioorg Med Chem Lett, 2002).

What all share (type): cell-based
Assay [1] addresses T1, Muscarinic acetylcholine receptor M1 (Homo sapiens, UniProt P11229).
T1 sequence (P11229 whole entry): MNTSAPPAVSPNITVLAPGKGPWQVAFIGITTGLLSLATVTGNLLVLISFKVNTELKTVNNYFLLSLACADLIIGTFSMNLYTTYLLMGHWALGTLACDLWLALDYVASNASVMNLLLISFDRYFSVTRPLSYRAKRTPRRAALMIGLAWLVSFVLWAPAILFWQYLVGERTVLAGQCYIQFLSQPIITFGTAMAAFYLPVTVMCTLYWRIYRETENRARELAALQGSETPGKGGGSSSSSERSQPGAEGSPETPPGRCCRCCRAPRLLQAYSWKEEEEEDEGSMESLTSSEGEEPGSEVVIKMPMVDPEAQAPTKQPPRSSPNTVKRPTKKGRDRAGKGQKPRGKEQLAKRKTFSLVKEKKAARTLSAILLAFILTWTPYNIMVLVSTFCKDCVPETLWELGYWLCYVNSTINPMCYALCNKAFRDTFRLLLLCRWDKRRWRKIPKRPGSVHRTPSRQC
Kind of assay: Binding affinity against human muscarine receptor (hM1) cloned in CHO cells.

The target in assay [2] is T2, Muscarinic acetylcholine receptor M2 (Homo sapiens, UniProt P08172).
T2 sequence (P08172 whole entry): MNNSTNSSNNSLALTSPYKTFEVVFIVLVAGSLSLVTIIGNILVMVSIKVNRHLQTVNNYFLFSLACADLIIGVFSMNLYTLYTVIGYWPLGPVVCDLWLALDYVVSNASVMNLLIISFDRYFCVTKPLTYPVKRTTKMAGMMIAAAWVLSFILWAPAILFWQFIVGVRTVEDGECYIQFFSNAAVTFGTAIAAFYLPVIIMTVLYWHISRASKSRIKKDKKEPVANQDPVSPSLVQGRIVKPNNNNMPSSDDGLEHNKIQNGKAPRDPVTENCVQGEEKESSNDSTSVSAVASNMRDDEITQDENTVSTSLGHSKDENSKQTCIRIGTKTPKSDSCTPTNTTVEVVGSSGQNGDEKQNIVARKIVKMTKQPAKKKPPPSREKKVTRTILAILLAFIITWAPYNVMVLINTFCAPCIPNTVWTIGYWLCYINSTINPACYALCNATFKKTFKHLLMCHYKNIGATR
Kind of assay: Binding affinity against human muscarine receptor (hM2) cloned in CHO cells.

The target in assay [3] is Muscarinic acetylcholine receptor M3 (Homo sapiens, UniProt P20309). Description: Binding affinity against human muscarine receptor (hM3) cloned in CHO cells.
Muscarinic acetylcholine receptor M3, sequence (P20309 whole entry): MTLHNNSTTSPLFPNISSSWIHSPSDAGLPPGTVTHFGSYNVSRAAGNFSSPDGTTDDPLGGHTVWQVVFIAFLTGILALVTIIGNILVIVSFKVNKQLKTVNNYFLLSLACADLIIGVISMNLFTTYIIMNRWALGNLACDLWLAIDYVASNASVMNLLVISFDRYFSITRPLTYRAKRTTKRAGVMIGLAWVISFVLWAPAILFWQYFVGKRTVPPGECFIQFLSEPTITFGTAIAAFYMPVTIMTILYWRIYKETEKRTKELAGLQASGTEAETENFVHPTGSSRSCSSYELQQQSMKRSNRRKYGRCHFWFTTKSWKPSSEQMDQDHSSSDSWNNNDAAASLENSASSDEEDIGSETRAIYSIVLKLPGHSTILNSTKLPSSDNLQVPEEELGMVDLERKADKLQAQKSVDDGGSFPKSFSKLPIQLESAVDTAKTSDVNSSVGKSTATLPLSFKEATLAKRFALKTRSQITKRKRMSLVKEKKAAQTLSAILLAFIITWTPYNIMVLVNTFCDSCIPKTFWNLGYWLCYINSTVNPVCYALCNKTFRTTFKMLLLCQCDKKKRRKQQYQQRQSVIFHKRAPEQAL
Assay [4] addresses T3, Muscarinic acetylcholine receptor M4 (Homo sapiens, UniProt P08173).
T3 sequence (P08173 whole entry): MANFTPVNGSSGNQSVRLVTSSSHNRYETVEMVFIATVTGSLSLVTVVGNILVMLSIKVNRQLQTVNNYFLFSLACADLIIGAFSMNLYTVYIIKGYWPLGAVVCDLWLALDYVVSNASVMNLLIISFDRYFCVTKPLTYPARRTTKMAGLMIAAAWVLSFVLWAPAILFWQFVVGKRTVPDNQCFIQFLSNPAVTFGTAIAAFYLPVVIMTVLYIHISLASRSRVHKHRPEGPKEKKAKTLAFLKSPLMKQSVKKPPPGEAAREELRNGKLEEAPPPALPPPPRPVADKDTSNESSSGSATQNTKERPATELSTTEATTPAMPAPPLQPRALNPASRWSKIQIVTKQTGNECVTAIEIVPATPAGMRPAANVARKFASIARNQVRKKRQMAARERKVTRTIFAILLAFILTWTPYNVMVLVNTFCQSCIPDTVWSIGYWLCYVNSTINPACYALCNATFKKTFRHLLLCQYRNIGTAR
Description: Binding affinity against human muscarine receptor (hM4) cloned in CHO cells.

In the case of `C[C@@H]1OC(=O)[C@H]2C[C@H]3CCCC[C@@H]3[C@@H](/C=C/[C@H]3CCC[C@H](C)N3C)[C@@H]12` [HIMBACINE], the Ki (usually the dissociation constant of the complex between target and ligand, obtained from inhibition or displacement) was 158 nM in assay [1] and 4.68 nM in assay [2].
Consider `C[C@@H]1OC(=O)[C@H]2C[C@H]3CCCC[C@H]3[C@H](/C=C\[C@H]3CCC[C@H](C)N3C)[C@@H]12`, for which the Ki is 2570 nM in assay [1] and 851 nM in assay [2].
The matching figures for `C[C@@H]1OC(=O)[C@H]2C[C@H]3CCCC[C@H]3[C@H](/C=C/[C@H]3CCC[C@H](C)N3C)[C@@H]12`: 1740 nM and 170 nM.
For `C[C@@H]1OC(=O)[C@H]2C[C@H]3CCCC[C@@H]3[C@@H](C#C[C@H]3CCC[C@H](C)N3C)[C@@H]12`, the Ki was 3240 nM in assay [1], 309 nM in assay [2], 3310 nM in assay [3] and 891 nM in assay [4].
As to `C[C@@H]1OC(=O)[C@@H]2C[C@@H]3CCCC[C@@H]3[C@@H](/C=C/[C@H]3CCC[C@H](C)N3C)[C@H]12`, the Ki in assay [1] is 427 nM; in assay [2], 95.5 nM.
On to `C[C@@H]1OC(=O)[C@@H]2C[C@@H]3CCCC[C@@H]3[C@@H](C#C[C@H]3CCC[C@H](C)N3C)[C@H]12`, for which the Ki was 3240 nM in assay [1], 1170 nM in assay [2], 11000 nM in assay [3] and 1950 nM in assay [4].
Regarding `C[C@@H]1OC(=O)[C@@H]2C[C@@H]3CCCC[C@@H]3[C@@H](/C=C\[C@H]3CCC[C@H](C)N3C)[C@H]12`, the Ki was 2340 nM in assay [1] and 676 nM in assay [2].
On to `C[C@@H]1OC(=O)[C@H]2C[C@H]3CCCC[C@H]3[C@H](C#C[C@H]3CCC[C@H](C)N3C)[C@@H]12`, for which the Ki was 5370 nM in assay [1], 1150 nM in assay [2], 5010 nM in assay [3] and 1740 nM in assay [4].
As for `C[C@@H]1OC(=O)[C@H]2C[C@H]3CCCC[C@@H]3[C@@H](/C=C\[C@H]3CCC[C@H](C)N3C)[C@@H]12`, the Ki in assay [1] is 1510 nM; in assay [2], 1740 nM.
